Results from ChEMBL document CHEMBL3991601, “The target landscape of clinical kinase drugs” (Science, 2017).
Active and inactive are the calls of the source.

Columns and labels:
[1] = target: T1, Glycogen phosphorylase, liver form (Homo sapiens, UniProt P06737); format: subcellular, K-562, COLO 205, SK-N-BE(2) and MV-4-11, Cell lysate; conditions: read-out: Kd apparent
T1 sequence (P06737 whole entry): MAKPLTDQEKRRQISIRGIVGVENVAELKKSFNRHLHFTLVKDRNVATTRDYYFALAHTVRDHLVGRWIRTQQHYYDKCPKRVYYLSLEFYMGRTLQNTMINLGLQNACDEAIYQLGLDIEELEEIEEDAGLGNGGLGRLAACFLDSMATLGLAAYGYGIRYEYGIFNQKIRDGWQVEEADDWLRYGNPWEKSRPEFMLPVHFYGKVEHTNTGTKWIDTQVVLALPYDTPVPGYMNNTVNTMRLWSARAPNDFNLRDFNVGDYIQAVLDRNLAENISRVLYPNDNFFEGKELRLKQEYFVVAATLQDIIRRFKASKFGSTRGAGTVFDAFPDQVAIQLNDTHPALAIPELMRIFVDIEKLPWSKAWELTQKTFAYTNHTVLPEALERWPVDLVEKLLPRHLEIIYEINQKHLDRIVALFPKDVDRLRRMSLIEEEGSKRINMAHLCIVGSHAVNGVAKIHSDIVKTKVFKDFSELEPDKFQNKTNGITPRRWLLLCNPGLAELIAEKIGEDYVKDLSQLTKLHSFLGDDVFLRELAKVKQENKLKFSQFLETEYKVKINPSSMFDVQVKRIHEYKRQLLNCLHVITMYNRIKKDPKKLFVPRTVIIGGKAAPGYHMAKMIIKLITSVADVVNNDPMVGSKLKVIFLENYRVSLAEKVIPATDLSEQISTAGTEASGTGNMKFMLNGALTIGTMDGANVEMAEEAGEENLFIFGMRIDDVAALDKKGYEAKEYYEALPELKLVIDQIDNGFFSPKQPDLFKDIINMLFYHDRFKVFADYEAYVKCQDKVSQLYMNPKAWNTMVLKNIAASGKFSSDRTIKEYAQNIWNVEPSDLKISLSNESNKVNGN

[2] = target: T2, Serine/threonine-protein kinase TAO3 (Homo sapiens, UniProt Q9H2K8)
T2 sequence (Q9H2K8 whole entry): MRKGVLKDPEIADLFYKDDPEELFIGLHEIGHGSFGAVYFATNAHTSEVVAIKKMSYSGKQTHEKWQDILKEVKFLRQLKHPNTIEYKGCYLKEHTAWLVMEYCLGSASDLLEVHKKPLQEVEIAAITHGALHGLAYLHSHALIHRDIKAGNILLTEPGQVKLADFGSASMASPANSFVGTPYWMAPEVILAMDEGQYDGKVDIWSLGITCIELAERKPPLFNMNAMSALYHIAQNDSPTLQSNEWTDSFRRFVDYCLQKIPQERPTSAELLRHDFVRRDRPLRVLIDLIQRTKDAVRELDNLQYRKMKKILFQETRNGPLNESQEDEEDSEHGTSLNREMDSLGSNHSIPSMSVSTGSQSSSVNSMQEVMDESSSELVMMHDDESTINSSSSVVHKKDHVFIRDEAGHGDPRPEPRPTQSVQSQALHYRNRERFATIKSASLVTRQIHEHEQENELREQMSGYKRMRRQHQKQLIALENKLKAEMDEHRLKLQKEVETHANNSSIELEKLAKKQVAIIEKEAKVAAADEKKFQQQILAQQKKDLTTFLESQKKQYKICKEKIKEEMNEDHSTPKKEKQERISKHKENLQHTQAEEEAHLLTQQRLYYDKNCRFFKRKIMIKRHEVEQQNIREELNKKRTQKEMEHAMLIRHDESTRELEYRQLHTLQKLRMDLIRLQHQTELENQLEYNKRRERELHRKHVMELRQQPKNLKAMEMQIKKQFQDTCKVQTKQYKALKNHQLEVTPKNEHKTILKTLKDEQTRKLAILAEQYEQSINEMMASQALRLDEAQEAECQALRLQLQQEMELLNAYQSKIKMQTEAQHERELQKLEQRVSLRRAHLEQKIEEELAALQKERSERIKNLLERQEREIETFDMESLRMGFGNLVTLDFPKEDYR

[3] = target: Cyclin-dependent kinase 2 (Homo sapiens, UniProt P24941)
[4] = target: Tyrosine-protein kinase Yes (Homo sapiens, UniProt P07947)
Glycine--tRNA ligase = target: T3, Glycine--tRNA ligase (Homo sapiens, UniProt P41250)
T3 sequence (P41250 whole entry): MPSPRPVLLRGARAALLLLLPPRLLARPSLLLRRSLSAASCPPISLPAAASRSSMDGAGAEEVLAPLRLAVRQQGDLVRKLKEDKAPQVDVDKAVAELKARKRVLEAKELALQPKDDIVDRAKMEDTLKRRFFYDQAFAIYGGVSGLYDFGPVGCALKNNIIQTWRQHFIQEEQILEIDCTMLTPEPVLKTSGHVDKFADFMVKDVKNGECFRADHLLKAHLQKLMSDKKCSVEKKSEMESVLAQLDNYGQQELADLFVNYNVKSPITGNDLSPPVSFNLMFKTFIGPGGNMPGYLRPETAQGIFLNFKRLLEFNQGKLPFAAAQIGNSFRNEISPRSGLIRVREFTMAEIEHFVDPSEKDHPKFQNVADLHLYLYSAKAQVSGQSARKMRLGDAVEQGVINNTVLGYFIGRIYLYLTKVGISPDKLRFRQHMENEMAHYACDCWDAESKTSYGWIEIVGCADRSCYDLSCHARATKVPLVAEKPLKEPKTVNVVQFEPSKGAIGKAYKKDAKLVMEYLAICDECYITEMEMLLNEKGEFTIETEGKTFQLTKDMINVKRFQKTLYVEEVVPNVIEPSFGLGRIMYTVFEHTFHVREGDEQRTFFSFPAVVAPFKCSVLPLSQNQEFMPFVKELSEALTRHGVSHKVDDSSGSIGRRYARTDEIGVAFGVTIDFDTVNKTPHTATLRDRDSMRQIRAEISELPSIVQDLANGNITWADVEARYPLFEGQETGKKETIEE

DNA topoisomerase 2-beta = DNA topoisomerase 2-beta (Homo sapiens, UniProt Q02880)
Also: in the data inactive means no Kd found up to 30 µM.

Chain of Tyrosine-protein kinase Yes (P07947 whole entry): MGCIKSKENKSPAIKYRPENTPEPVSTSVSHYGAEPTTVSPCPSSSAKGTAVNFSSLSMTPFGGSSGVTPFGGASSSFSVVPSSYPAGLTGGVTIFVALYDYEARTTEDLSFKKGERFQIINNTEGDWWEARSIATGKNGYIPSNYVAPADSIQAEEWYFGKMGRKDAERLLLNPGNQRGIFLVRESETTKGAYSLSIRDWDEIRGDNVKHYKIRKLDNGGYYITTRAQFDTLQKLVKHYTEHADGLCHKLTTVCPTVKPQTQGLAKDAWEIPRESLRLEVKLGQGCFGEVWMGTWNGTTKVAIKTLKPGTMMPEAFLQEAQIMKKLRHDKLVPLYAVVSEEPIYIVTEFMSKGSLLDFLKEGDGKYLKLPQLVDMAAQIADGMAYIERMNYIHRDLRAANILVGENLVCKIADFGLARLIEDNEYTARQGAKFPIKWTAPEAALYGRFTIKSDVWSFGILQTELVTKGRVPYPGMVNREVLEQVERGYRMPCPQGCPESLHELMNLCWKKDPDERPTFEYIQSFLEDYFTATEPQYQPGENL
Chain of DNA topoisomerase 2-beta (Q02880 whole entry): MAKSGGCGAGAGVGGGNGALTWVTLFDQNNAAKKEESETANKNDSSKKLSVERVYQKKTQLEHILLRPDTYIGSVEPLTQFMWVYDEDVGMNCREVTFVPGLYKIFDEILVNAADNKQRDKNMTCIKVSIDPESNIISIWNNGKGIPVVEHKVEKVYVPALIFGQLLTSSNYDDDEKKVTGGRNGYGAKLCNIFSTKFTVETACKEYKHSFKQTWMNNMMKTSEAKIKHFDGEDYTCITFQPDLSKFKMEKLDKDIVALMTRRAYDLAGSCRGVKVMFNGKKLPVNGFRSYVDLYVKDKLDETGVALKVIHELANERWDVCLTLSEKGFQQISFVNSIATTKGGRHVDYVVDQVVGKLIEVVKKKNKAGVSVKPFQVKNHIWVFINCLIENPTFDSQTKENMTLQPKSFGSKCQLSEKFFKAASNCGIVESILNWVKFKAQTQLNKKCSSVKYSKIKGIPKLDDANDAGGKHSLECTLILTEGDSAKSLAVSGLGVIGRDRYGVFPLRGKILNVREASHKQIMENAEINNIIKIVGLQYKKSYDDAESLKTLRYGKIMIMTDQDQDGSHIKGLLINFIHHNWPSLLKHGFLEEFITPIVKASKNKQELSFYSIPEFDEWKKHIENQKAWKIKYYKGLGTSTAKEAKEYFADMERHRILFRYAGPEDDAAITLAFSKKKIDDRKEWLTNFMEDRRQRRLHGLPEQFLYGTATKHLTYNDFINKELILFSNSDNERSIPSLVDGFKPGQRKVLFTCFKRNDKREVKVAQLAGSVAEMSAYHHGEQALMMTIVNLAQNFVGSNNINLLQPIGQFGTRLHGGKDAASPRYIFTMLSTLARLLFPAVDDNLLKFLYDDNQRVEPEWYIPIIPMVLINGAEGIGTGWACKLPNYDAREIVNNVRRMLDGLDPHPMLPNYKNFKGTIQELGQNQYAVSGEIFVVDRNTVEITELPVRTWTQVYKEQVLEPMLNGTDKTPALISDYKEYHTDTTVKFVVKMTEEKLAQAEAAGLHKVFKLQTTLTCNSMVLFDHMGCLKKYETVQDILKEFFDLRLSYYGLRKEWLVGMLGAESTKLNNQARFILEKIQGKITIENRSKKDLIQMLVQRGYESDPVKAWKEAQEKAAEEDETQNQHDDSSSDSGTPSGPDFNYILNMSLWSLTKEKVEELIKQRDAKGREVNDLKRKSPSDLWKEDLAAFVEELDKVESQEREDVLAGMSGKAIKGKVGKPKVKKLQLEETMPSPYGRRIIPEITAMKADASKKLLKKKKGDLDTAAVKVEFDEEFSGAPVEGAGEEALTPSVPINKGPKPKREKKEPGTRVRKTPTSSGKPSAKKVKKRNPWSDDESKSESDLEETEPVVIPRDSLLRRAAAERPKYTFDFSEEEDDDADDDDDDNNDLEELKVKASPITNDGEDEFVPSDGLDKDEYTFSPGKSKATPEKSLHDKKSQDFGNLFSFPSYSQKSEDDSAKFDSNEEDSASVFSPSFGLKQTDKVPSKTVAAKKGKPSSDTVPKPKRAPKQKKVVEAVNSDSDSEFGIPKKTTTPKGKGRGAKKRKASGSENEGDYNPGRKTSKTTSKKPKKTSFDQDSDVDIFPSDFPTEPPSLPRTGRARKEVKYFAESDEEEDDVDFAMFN

Structure (SMILES) | Kd [1] | Kd [2] | Kd [3] | Kd [4] | Kd (Glycine--tRNA ligase) | Kd (DNA topoisomerase 2-beta)
Cc1cc(Nc2nc(N[C@@H](C)c3ncc(F)cn3)ncc2Cl)n[nH]1 [AZD-1480] | > 30 µM (inactive) | > 30 µM (inactive) | > 30 µM (inactive) | > 30 µM (inactive) | > 30 µM (inactive) | > 30 µM (inactive)
CCN(CCCOc1ccc2c(Nc3cc(CC(=O)Nc4cccc(F)c4)n[nH]3)ncnc2c1)CCOP(=O)(O)O [BARASERTIB] | > 30 µM (inactive) | > 30 µM (inactive) | > 30 µM (inactive) | > 30 µM (inactive) | > 30 µM (inactive) | > 30 µM (inactive)
COc1ccc(-c2ccc3ncc4c(c3c2)n(-c2ccc(N3CCNCC3)c(C(F)(F)F)c2)c(=O)n4C)cn1 [BGT-226 FREE BASE] | > 30 µM (inactive) | > 30 µM (inactive) | > 30 µM (inactive) | > 30 µM (inactive) | > 30 µM (inactive) | > 30 µM (inactive)
COc1cccc(Nc2ncnn3ccc(CN4CC[C@@H](N)[C@H](O)C4)c23)c1 [BMS-690514] | > 30 µM (inactive) | > 30 µM (inactive) | > 30 µM (inactive) | 1.03 µM (active) | > 30 µM (inactive) | > 30 µM (inactive)
CCOc1ccn(-c2ccc(F)cc2)c(=O)c1C(=O)Nc1ccc(Oc2ccnc(N)c2Cl)c(F)c1 [BMS-777607] | > 30 µM (inactive) | > 30 µM (inactive) | > 30 µM (inactive) | > 30 µM (inactive) | > 30 µM (inactive) | > 30 µM (inactive)
COc1cc2nccc(Oc3ccc(NC(=O)C4(C(=O)Nc5ccc(F)cc5)CC4)cc3)c2cc1OC [CABOZANTINIB] | > 30 µM (inactive) | > 30 µM (inactive) | > 30 µM (inactive) | > 30 µM (inactive) | > 30 µM (inactive) | > 30 µM (inactive)
COc1cc2ncnc(Nc3ccc(F)c(Cl)c3)c2cc1NC(=O)/C=C/CN1CCCCC1 [DACOMITINIB ANHYDROUS] | > 30 µM (inactive) | > 30 µM (inactive) | > 30 µM (inactive) | > 30 µM (inactive) | > 30 µM (inactive) | > 30 µM (inactive)
Cn1c(=O)n(-c2ccc(C(C)(C)C#N)cc2)c2c3cc(-c4cnc5ccccc5c4)ccc3ncc21 [DACTOLISIB] | > 30 µM (inactive) | > 30 µM (inactive) | > 30 µM (inactive) | > 30 µM (inactive) | > 30 µM (inactive) | > 30 µM (inactive)
CC[C@@](C)(Nc1ccnc(-c2c[nH]c3ncccc23)n1)C(=O)NCC(F)(F)F [DECERNOTINIB] | > 30 µM (inactive) | 7.87 µM (active) | > 30 µM (inactive) | > 30 µM (inactive) | > 30 µM (inactive) | 0.148 µM (active)
CNC(=O)c1ccc(Nc2ncc(C(F)(F)F)c(NCc3nccnc3N(C)S(C)(=O)=O)n2)cc1 [DEFACTINIB] | > 30 µM (inactive) | 10.8 µM (active) | 1.66 µM | > 30 µM (inactive) | > 30 µM (inactive) | > 30 µM (inactive)
COc1cc(Nc2ncc(F)c(Nc3ccc4c(n3)N(COP(=O)(O)O)C(=O)C(C)(C)O4)n2)cc(OC)c1OC [FOSTAMATINIB] | > 30 µM (inactive) | > 30 µM (inactive) | > 30 µM (inactive) | > 30 µM (inactive) | > 30 µM (inactive) | > 30 µM (inactive)
Cc1c(Cn2c(C)nc3c(C(=O)O)cc(N4CCOCC4)cc32)cccc1C(F)(F)F [GSK-2636771] | > 30 µM (inactive) | > 30 µM (inactive) | > 30 µM (inactive) | > 30 µM (inactive) | > 30 µM (inactive) | > 30 µM (inactive)
O=S(=O)(c1cccc2c(O)nccc12)N1CCCNCC1 [HYDROXYFASUDIL] | > 30 µM (inactive) | > 30 µM (inactive) | > 30 µM (inactive) | > 30 µM (inactive) | > 30 µM (inactive) | > 30 µM (inactive)
C#Cc1cccc(Nc2ncnc3cc4c(cc23)OCCOCCOCCO4)c1 [ICOTINIB] | > 30 µM (inactive) | > 30 µM (inactive) | > 30 µM (inactive) | > 30 µM (inactive) | > 30 µM (inactive) | > 30 µM (inactive)
COc1cc2ncnc3c2cc1OCCCCCN(C)Cc1ccc(Br)cc1N3 [JNJ-26483327] | > 30 µM (inactive) | > 30 µM (inactive) | > 30 µM (inactive) | > 30 µM (inactive) | > 30 µM (inactive) | > 30 µM (inactive)
Cc1ccc(C(=O)Nc2ccc(Oc3cc4cnn(C)c4cc3-c3cn[nH]c3)c(F)c2)c(=O)n1-c1ccc(F)cc1 [MERESTINIB] | > 30 µM (inactive) | > 30 µM (inactive) | > 30 µM (inactive) | > 30 µM (inactive) | > 30 µM (inactive) | > 30 µM (inactive)
O=C(NOC[C@H](O)CO)c1ccc(F)c(F)c1Nc1ccc(I)cc1F [MIRDAMETINIB] | > 30 µM (inactive) | > 30 µM (inactive) | > 30 µM (inactive) | > 30 µM (inactive) | > 30 µM (inactive) | > 30 µM (inactive)
COc1cccc2cc(-c3nc([C@H]4CC[C@H](C(=O)O)CC4)n4ncnc(N)c34)[nH]c12 [OSI-027] | > 30 µM (inactive) | > 30 µM (inactive) | > 30 µM (inactive) | > 30 µM (inactive) | > 30 µM (inactive) | > 30 µM (inactive)
O=C(Nc1ccc(OC(F)(F)F)cc1)c1sccc1NCc1ccnc2ccccc12 [OSI-930] | > 30 µM (inactive) | > 30 µM (inactive) | > 30 µM (inactive) | > 30 µM (inactive) | > 30 µM (inactive) | > 30 µM (inactive)
C=CC(=O)Nc1cc(Nc2nccc(-c3cn(C)c4ccccc34)n2)c(OC)cc1N(C)CCN(C)C [OSIMERTINIB] | > 30 µM (inactive) | > 30 µM (inactive) | > 30 µM (inactive) | > 30 µM (inactive) | > 30 µM (inactive) | > 30 µM (inactive)
FC(F)(F)c1ccc(CNc2ccc(Cc3c[nH]c4ncc(Cl)cc34)cn2)cn1 [PEXIDARTINIB] | > 30 µM (inactive) | > 30 µM (inactive) | > 30 µM (inactive) | > 30 µM (inactive) | > 30 µM (inactive) | > 30 µM (inactive)
